From patent US8765803B1, “Rab7 GTPase inhibitors and related methods of treatment” (STC.UNM, priority 2011, dated 2014)
Several values for one entry are separate records, joined by “and”; a condition that tells them apart may be missing. Equal values may be shown once. Read-outs that look alike come from different tables or passages of the source.

Key:
[1] = tested on: EGFR degradation in HeLa-Rab7 wt cells; assay: EGFR degradation in Rab7 overexpressing HeLa cells; assay type: cell-based, human; settings: 100 μM
Procedure: EGFR degradation was also monitored in HeLa cells with some minor modifications. […] Cell lysates were prepared at various time points and immunoblotted for total EGFR while actin served as a loading control.

[2] = tested on: Ras-related GTPases (Cdc42 wt, Rac1wt, Rac1Q61L, Rab2 wt, Rab7 wt, and H-Ras wt); settings: secondary multiplex dose response
Procedure: The eight GTPases were grouped into two sets: Rab7, H-Ras wild type and its V12 mutant, and Cdc42 and its L61 mutant were assayed in a buffer containing 1 mM EDTA, while Rho, Rac1 and its L61 mutant, and Cdc42 and its L61 mutant were assayed in the same buffer but instead containing 1 mM Mg^2+ with Cdc42 and its mutant being tested in both buffers. Besides 1 mM EDTA or 1 mM Mg^2+, the buffer contained 30 mM HEPES, pH 7.5, 40 mM KCl, 100 mM NaCl, 0.1% (v/v) NP-40 and 1% BSA. For each multiplex reaction, an extra set of beads was included to serve as scavengers to bind any proteins that dissociate from their assigned bead set and thereby reduce interference due to protein dissociation during the assay. […] Briefly, each individual GST-tagged enzyme was incubated with 4 μm glutathione-coated microsphere beads overnight with gentle rotation. The microsphere beads have different red fluorescence dyes incorporated and therefore could be separated by a flow cytometer. The unbound enzyme was removed by sufficient washing with the buffer. The bead sets were then combined and dispensed to 384-well plates at 5 μL/well. For one plate, 0.5 μg each of the enzymes and 4.0×10^4 of each bead were used. Then 100 nL compound was added using Biomek FX followed by the addition of 5 μL/well of BODIPY-FL-GTP (ribose-linked BODIPY). […] The beads were aspirated and delivered with the HyperCyt® instrument and read on CyAnADP flow cytometer. Forward scatter and side scatter was used to define the whole bead population. […] The data was analyzed by the HyperView® software developed by Dr. Bruce Edward at the University of New Mexico.
Briefly, six sets of beads (each with a unique red fluorescence intensity) were individually coated with six representative GST-tagged Ras-related GTPases (Cdc42 wt, Rac1wt, Rac1Q61L, Rab2 wt, Rab7 wt, and H-Ras wt) (FIG. 29A). The individually conjugated beads were then assayed in the presence of individual compounds in the Molecular Libraries Small Molecule Repository using a HyperCyt flow cytometry to identify molecules that altered the binding of fluorescent nucleotide to Ras-family GTPases (36).

[3] = tested on: Rab7 wt; assay: Nucleotide dissociation assay under equilibrium conditions; settings: CID1067700 10 μM, compared with unlabeled GDP 10 μM
Procedure: This low level bead associated fluorescence was subtracted from specific binding to obtain accurate measurement of the off rates. Data normalization was performed by subtracting dilution only values from competitor treated experimental values.
The experiment was carried out by pre-binding BODIPY-GTP or BODIPY-GDP to GST-tagged Rab7 protein to equilibrium and then assaying for the loss of fluorescence over time occasioned by the release of bound nucleotide (FIG. 31A-D). […] Dissociation rate constants were calculated from data fit to exponential functions using Prism software.

[4] = Solubility in PBS and assay media, UV absorbance detection; assay type: physicochemical; settings: read-out: Solubility
Procedure: Solubility was measured in phosphate buffered saline (PBS) at room temperature (23° C.). PBS by definition is 137 mM NaCl, 2.7 mM KCl, 10 mM sodium phosphate dibasic, 2 mM potassium phosphate monobasic and a pH of 7.4. Detection was based on UV absorbance. […]. Solubility was also assessed in the each of the four media used in the individual assays. […]

[5] = tested on: VLA-4 integrin; assay: LDV binding assay in U937 ΔST cells; assay type: cell-based; settings: FITC-LDV 4 nM, after N-formyl peptide stimulation
Procedure: The procedure followed the established protocols described previously. U937 ΔST cells (0.4−0.8×10^6 cells/mL) were constantly stirred with a magnetic stir bar at 500 rpm in a test tube. The fluorescence was recorded on a FACScan flow cytometer. The base line fluorescence of the cells was established for 30s. FITC-LDV at a concentration of 4 nM was then added. After the fluorescence stabilized at around 120s, the chemotactic ligand N-formyl peptide was added for stimulation resulting activation of VLA-4 integrin and additional FITC-LDV binding. […] Fluorescence was continually recorded until no further change was observed. The inhibition percentage was calculated according to Equation 1.

[6] = tested on: U937 cells; assay: Cytotoxicity of compounds, cell density and viability; assay type: cell-based
Procedure: U937 cells were grown to a density of 0.4×10^6 cells/mL Compounds were added to a final concentration of 20 μM or otherwise indicated. As a control, cells were treated with DMSO of the same volume. After 24 h incubation, the density and viability of the cells were measured with Countess Cell Counter according to the protocols from the manufacturer.

[7] = Stability in PBS at room temperature; assay type: physicochemical; settings: 23° C., after 48 hours, no antioxidants, DMSO below 0.1%
Procedure: Stability, depicted as closed circles in the graph, was assessed at room temperature (23° C.) in PBS (no antioxidants or other protectants and DMSO concentration below 0.1%). Stability data is depicted as a graph showing the loss of compound with time over a 48 hr period with a minimum of 6 time points and providing the percent remaining compound at end of the 48 hr period.

[8] = tested on: EGFR degradation in SCC-12F cells; assay: EGFR degradation in SCC-12F cells; assay type: cell-based; settings: human keratinocytes (SCC-12F), 10-100 μM
Procedure: SCC-12F cells were seeded in 12-well plates at 0.12×10^6 cells/well and allowed to grow overnight. On the day of the experiment, the cells were starved in serum free medium containing 25 μg/mL cycloheximide for 2 h before compounds at different concentrations were added. The cells were treated for 30 min. Then, ligand EGF was added to 20 nM. At time points of 0, 15, 30, 60, and 120 min after the EGF addition, the suspension medium was removed and the cell was quickly washed with cold PBS and frozen at −80° C. For electrophoresis and blotting, CelLytic™M Cell Lysis buffer containing protease inhibitor cocktails was added to the frozen cells to obtain the cell lysates according to the protocols from the manufacture. Protein concentration was quantified using BCA assay kit. For SDS-PAGE, 10 μg protein was loaded to each lane and proteins transferred to nitrocellulose. The nitrocellulose membranes were probed with antibodies directed against EGFR or actin and detected using peroxidase conjugated secondary antibodies and SuperSignal West Dura. Signal intensities were measured and quantified using a ChemiDoc™ XRS+ molecular imager coupled with Image Lab software.

[9] = Chemical stability towards L-glutathione in DMSO, LCMS; assay type: physicochemical; settings: 1.2-3.0 eq L-glutathione in DMSO, 37° C., up to 72 h
Procedure: The three experiments were monitored by LCMS at each of the following time points: 1 h, 2 h, 4 h, 24 h, 48 h, and 72 h. Procedure: […]

[10] = tested on: Rab7 wt; assay: Equilibrium binding with varying fluorescent nucleotide at fixed CID1067700 concentration
Procedure: Dose response assays were conducted in two different modes. […].
[…]. […] […].

Structure (SMILES): CC1(C)Cc2c(sc(NC(=S)NC(=O)c3ccccc3)c2C(=O)O)CO1 [CID1067700, 2-(3-benzoylthioureido)-5,5-dimethyl-5,7-dihydro-4H-thieno[2,3-c]pyran-3-carboxylic acid]
- Growth factor receptor (EGFR) degradation [1]: decreased
- EC50 ([2]; read-out: EC50 against all tested GTPases, fluorescent GTP): 20 to 500 nM
- Inhibition against all tested GTPases [2]: at least 40%
- Effect on rate of release of bound BODIPY-GTP or BODIPY-GDP [3]: no effect
- solubility ([4]; Dose Response-EDTA buffer, pH 7.5, aqueous with cosolvent or surfactant or cyclodextrin, Dose Response-EDTA buffer: 30 mM HEPES, pH 7.5, 100 mM KCl, 20 mM NaCl, 0.01% NP-40, 1 mM EDTA): 69.7 µg/mL
- solubility ([4]; Dose Response-EDTA buffer, pH 7.5, aqueous with cosolvent or surfactant or cyclodextrin, Dose Response-EDTA buffer): 178 µM
- solubility ([4]; Dose Response-Mg buffer, pH 7.5, aqueous with cosolvent or surfactant or cyclodextrin, Dose Response-Mg buffer: 30 mM HEPES, pH 7.5, 100 mM KCl, 20 mM NaCl, 0.01% NP-40, 1 mM MgCl2): 68.1 µg/mL
- solubility ([4]; Dose Response-Mg buffer, pH 7.5, aqueous with cosolvent or surfactant or cyclodextrin, Dose Response-Mg buffer): 174 µM
- solubility ([4]; phosphate buffered saline (PBS), 23 °C, pH 7.4, aqueous buffer, 1 × PBS, pH 7.4, room temperature (23° C.)): > 116 µg/mL and > 297 µM
- VLA4 binding with LDV peptide [5]: inhibits
- Cell viability of U937 cells after treatment ([6]; 24 h, 20 μM): 94%
- Cytotoxicity in U937 cells ([6]; 24 h in growth medium): no obvious cytotoxicity
- Percent remaining compound [7]: 77%
- Growth factor receptor (EGFR) degradation [8]: decreased
- Glutathione conjugate formation by LCMS [9]: did not result in LCMS detection of any conjugates or other product peaks
- Glutathione conjugate formation by LCMS ([9]; listed as SID 85747738): No glutathione conjugate or other peaks were observed
- Increase of Ki (Cheng Prusoff) between inhibition of BODIPY-GTP and BODIPY-GDP [10]: 2 fold
- Effect on Rab7 wt Bmax for BODIPY-GTP ([10]; CID1067700 100 nM): does not alter
- Effect on Rab7 wt Bmax for BODIPY-GDP ([10]; CID1067700 200 nM): does not alter
- Increase in observed EC50 for both nucleotides in the presence of CID1067700 ([10]; CID1067700 fixed at 100-200 nM): ≤ 3 fold
